{"source": "patent EP1881000A1", "about": "“Conjugates of 2-fluoro-2-deoxy-glucose and their uses as anti cancer agents” (INSTITUT NATIONAL DE LA SANTE ET DE LA RECHERCHE MEDICALE …, priority 2006, dated 2008)", "assay_type_in_all_cases": "cell-based", "key": {"[1]": {"tested_on": "Murine Melanoma B16", "test": "In vitro cytotoxicity assay (resazurin reduction test)", "details": "Mus musculus, 48-h continuous drug exposure", "description": "(§1) Normal human fibroblasts were purchased from Promocell (Heidelberg, Germany). This frozen culture was obtained from foreskin waste and the cells used in this work were from the seventh to twelfth passage of the culture. M4Beu, a human melanoma cell line, was established in the laboratory of Dr. J. F. Doré (INSERM, Unit 218, Lyon, France) from metastatic biopsy specimens and maintained in cell culture for almost 20 years in our lab. Breast cancer adenocarcinoma MCF 7, prostatic adenocarcinoma PC 3, colon adenocarcinoma DLD-1, lung non-small cell carcinoma A 549, ovary adenocarcinoma PA1 human cell lines and L 929 murine cell line were purchased from the European Collection of Cell Cultures (ECACC; Salisbury, United Kingdom). Murine Melanoma B16 was purchased from American Type of Culture Collection (ATCC, Manassas, USA) and murine colon carcinoma cell line CT-26 was obtained from Dr I. J. Fidler (University of Texas M.D. Anderson Cancer Center, Houston).\n(§2) Stock cell cultures were maintained as monolayers in 75cm^2 culture flasks in Glutamax Eagle's minimum essential medium with Earle's salts (MEM; Gibco BRL, Paisley, UK) supplemented with 10% fetal calf serum (Sigma, St Quentin Fallavier, France), 1 mM sodium pyruvate (Gibco), 1X vitamins solution (Gibco), 1X non essential amino acids solution (Gibco) and 4 µg/ml of gentamicine (Gibco). Cells were grown at 37°C in a humidified atmosphere containing 5% CO2.\n(§3) Cells were plated at a density of 5 x 10^3 cells per well in 96-well microplates (Nunclon™, Nunc, Roskilde, Denmark) in 150 µl of culture medium and were allowed to adhere for 16 h before treatment with the compound tested.\n(§4) Stock solution of each compound was prepared in dimethylsulfoxide (DMSO) and kept at -20°C. until use. The percentage of DMSO was kept at 0.5% (v/v) whichever the concentration tested. […] Fifty microliters of a 4X solution in MEM was then added and a 48-h continuous drug exposure protocol was used. Then, the cytotoxic effect of compounds on tumour cells was tested by using Resazurin reduction test.\n(§5) Resazurin was identified as the Alamar blue dye (O'Brien, J. et al.; European Journal of Biochemistry, 267, 5421-6, (2000)). The resazurin reduction test (RRT) was carried out according to the protocol described here. Briefly, plates were rinsed by 200 µl PBS (37° C, Gibco) using a multichannel dispenser (Labsystems, Helsinki, Finland) and emptied by overturning on absorbent toweling. Then, 150 µl of a 25 µg/ml solution of resazurin in MEM without SVF nor Phenol red was added in each well. The plates were incubated 1 h at 37° C. in an humidified atmosphere with 5% of CO2 for fluorescence development by living cells. Fluorescence was then measured on the automated 96-well plate reader Fluoroskan Ascent FL™ (Labsystems) using an excitation wavelength of 530 nm and an emission one of 590 nm."}, "[2]": {"tested_on": "murine colon carcinoma cell line CT-26", "test": "In vitro cytotoxicity assay (resazurin reduction test)", "details": "Mus musculus; CT26; 48-h continuous drug exposure", "description": "as §1, §2, §3, §4, §5"}, "[3]": {"tested_on": "tumour cells", "test": "In vitro cytotoxicity assay, statements over all cell lines of Table 1", "details": "Homo sapiens, PA-1", "description": "as §1, with “Houston). […]” for “Houston).”\nResazurin was identified as the Alamar blue dye (O'Brien, J. et al.; European Journal of Biochemistry, 267, 5421-6, (2000)). […] The plates were incubated 1 h at 37° C. in an humidified atmosphere with 5% of CO2 for fluorescence development by living cells. Fluorescence was then measured on the automated 96-well plate reader Fluoroskan Ascent FL™ (Labsystems) using an excitation wavelength of 530 nm and an emission one of 590 nm. […]"}, "[4]": {"tested_on": "M4Beu, a human melanoma cell line", "test": "In vitro cytotoxicity assay (resazurin reduction test)", "details": "48-h continuous drug exposure", "description": "as §1, §2, §3, §4, §5\n(§6) Cytotoxic activity has been tested against the six human tumour cell lines breast adenocarcinoma MCF-7, colon adenocarcinoma DLD-1, ovary adenocarcinoma PA1, prostatic adenocarcinoma PC3, lung carcinoma A549, melanoma M4Beu and a primary culture of human fibroblasts."}, "[5]": {"tested_on": "lung non-small cell carcinoma A 549", "test": "In vitro cytotoxicity assay (resazurin reduction test)", "details": "Homo sapiens; A549; 48-h continuous drug exposure", "description": "as §1, §2, §3, §4, §5, §6"}, "[6]": {"tested_on": "colon adenocarcinoma DLD-1", "test": "In vitro cytotoxicity assay (resazurin reduction test)", "details": "Homo sapiens, DLD1, 48-h continuous drug exposure", "description": "as §1, §2, §3, §4, §5, §6"}, "[7]": {"tested_on": "Normal human fibroblasts", "test": "In vitro cytotoxicity assay (resazurin reduction test)", "details": "Fibroblast, 48-h continuous drug exposure", "description": "as §1, §2, §3, §4, §5, §6"}, "[8]": {"tested_on": "ovary adenocarcinoma PA1", "test": "In vitro cytotoxicity assay (resazurin reduction test)", "details": "Homo sapiens, 48-h continuous drug exposure", "description": "as §1, §2, §3, §4, §5, §6"}, "[9]": {"tested_on": "Breast cancer adenocarcinoma MCF 7", "test": "In vitro cytotoxicity assay (resazurin reduction test)", "details": "Homo sapiens; MCF7; 48-h continuous drug exposure", "description": "as §1, §2, §3, §4, §5, §6"}, "[10]": {"tested_on": "prostatic adenocarcinoma PC 3", "test": "In vitro cytotoxicity assay (resazurin reduction test)", "details": "Homo sapiens; PC3; 48-h continuous drug exposure", "description": "as §1, §2, §3, §4, §5, §6"}}, "data": [{"smiles": "O=C(O)CCCc1ccc(N(CCCl)CCCl)cc1", "note": "[chlorambucil, reference compound]", "values": [{"measurement": "IC50", "setting": "[1]", "result": "42.6 ± 9.5", "unit": "µM"}, {"measurement": "IC50", "setting": "[2]", "result": "6.3 ± 0.4", "unit": "µM"}, {"measurement": "IC50", "setting": "[3]", "result": "> 40", "unit": "µM"}, {"measurement": "IC50", "setting": "[4]", "result": "> 100", "unit": "µM"}, {"measurement": "IC50", "setting": "[5]", "result": "43 ± 14", "unit": "µM"}, {"measurement": "IC50", "setting": "[6]", "result": "47 ± 17", "unit": "µM"}, {"measurement": "IC50", "setting": "[7]", "result": "99 ± 2", "unit": "µM"}, {"measurement": "IC50", "setting": "[8]", "result": "2.8 ± 0.4", "unit": "µM"}, {"measurement": "IC50", "setting": "[9]", "result": "> 100", "unit": "µM"}]}, {"smiles": "CC(=O)OC[C@H]1O[C@@H](Oc2ccc(NC(=O)CNC(=O)CCCc3ccc(N(CCCl)CCCl)cc3)cc2)[C@H](F)[C@@H](OC(C)=O)[C@@H]1OC(C)=O", "note": "[Compound 40a, N-{2-[4-(3,4,6-tri-O-acetyl-2-deoxy-2-fluoro-β-D-glucopyranosyloxy)phenyl]amino-2-oxoethyl}-4-{4-[bis(2-chloroethyl)amino]phenyl}butanamide]", "values": [{"measurement": "IC50", "setting": "[1]", "result": "10 ± 0.5", "unit": "µM"}, {"measurement": "IC50", "setting": "[2]", "result": "4.3 ± 0.2", "unit": "µM"}, {"measurement": "IC50", "setting": "[4]", "result": "15 ± 6", "unit": "µM"}, {"measurement": "IC50", "setting": "[5]", "result": "10 ± 5", "unit": "µM"}, {"measurement": "IC50", "setting": "[6]", "result": "6 ± 2", "unit": "µM"}, {"measurement": "IC50", "setting": "[7]", "result": "17 ± 6", "unit": "µM"}, {"measurement": "IC50", "setting": "[10]", "result": "7 ± 2", "unit": "µM"}, {"measurement": "IC50", "setting": "[8]", "result": "1.5 ± 0.5", "unit": "µM"}]}, {"smiles": "CC(=O)OC[C@H]1O[C@@H](NC(=O)CNC(=O)CCCc2ccc(N(CCCl)CCCl)cc2)[C@H](F)[C@@H](OC(C)=O)[C@@H]1OC(C)=O", "note": "[Compound 21a, N-[2-(3,4,6-tri-O-acetyl-2-deoxy-2-fluoro-β-D-glucopyranosylamino)-2-oxoethyl]-4-{4-[bis(2-chloroethyl)amino]phenyl}butanamide]", "values": [{"measurement": "IC50", "setting": "[1]", "result": "6.4 ± 0.6", "unit": "µM"}, {"measurement": "IC50", "setting": "[2]", "result": "7 ± 1", "unit": "µM"}, {"measurement": "IC50", "setting": "[4]", "result": "6.8 ± 0.9", "unit": "µM"}, {"measurement": "IC50", "setting": "[5]", "result": "5 ± 2", "unit": "µM"}, {"measurement": "IC50", "setting": "[6]", "result": "4 ± 3", "unit": "µM"}, {"measurement": "IC50", "setting": "[7]", "result": "4.1 ± 0.1", "unit": "µM"}, {"measurement": "IC50", "setting": "[10]", "result": "10 ± 2", "unit": "µM"}, {"measurement": "IC50", "setting": "[8]", "result": "1 ± 0.1", "unit": "µM"}, {"measurement": "IC50", "setting": "[9]", "result": "8 ± 2", "unit": "µM"}]}]}
